Data: the supplement of paper PMC10307832

What follows are cell lines tested with COc1cc(Nc2ncc(F)c(Nc3ccc4c(n3)NC(=O)C(C)(C)O4)n2)cc(OC)c1OC [R406] + Nc1nc2[nH]cc(CCc3ccc(C(=O)N[C@@H](CCC(=O)O)C(=O)O)cc3)c2c(=O)[nH]1 [Pemetrexed] (partner 0.2 µM) (assay: relative viability (nuclei count vs DMSO), 5 days (fraction); higher = more cells survive). Details: first compound 0.08 µM.
Method in brief: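 Cells from lung cancer lines were seeded into 1536-well plates and, one day later, dosed by pin tool. Treatments were either a single drug or a fixed dose of an anchor drug with five library-drug doses (not always all listed) in √10 steps. After 5 days, nuclei were stained in a one-step fixation (final 0.05% Triton X-100, 1% formaldehyde, 1 ug/ml Hoechst) and counted on 4× images, and relative viability is the treated-to-vehicle nuclei ratio, as the median of duplicate plates.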
HCC-15 showed a relative viability of 0.213. Cell Line PC-3 [JPC-3] has a relative viability of 1.08. EKVX showed a relative viability of 0.374. Cell Line LC-2-ad has a relative viability of 0.281. NCI-H1975 gave a relative viability of 0.29. Work on SK-LU-1 yielded a relative viability of 0.952. NCI-H661 showed a relative viability of 0.943. Cell Line RERF-LC-KJ has a relative viability of 0.457.

Same assay, conditions: first compound 0.253 µM
Work on HCC-78 yielded a relative viability of 0.972. NCI-H322M gave a relative viability of 0.596. Work on LCLC-97TM1 yielded a relative viability of 0.2. NCI-H2009 gave a relative viability of 1.09. A-427 was tested, and the relative viability was 1.01. Cell Line NCI-H460 has a relative viability of 0.0593. NCI-H1734 gave a relative viability of 0.417. In the case of NCI-H520, the relative viability was 0.724. With NCI-H2347 the relative viability was 0.398. Cell Line SW 1573 has a relative viability of 0.898. 201T showed a relative viability of 0.359. NCI-H1915 gave a relative viability of 0.475. In the case of HCC-827, the relative viability was 0.262. LXF-289 showed a relative viability of 0.912. NCI-H23 was tested, and the relative viability was 0.806. In the case of NCI-H650, the relative viability was 1.13. CAL-12T was tested, and the relative viability was 1.15. With NCI-H1651 the relative viability was 0.679. EPLC-272H was tested, and the relative viability was 0.359. In the case of NCI-H2228, the relative viability was 0.332. With NCI-H1355 the relative viability was 1.09. NCI-H3122 was tested, and the relative viability was 0.202. NCI-H1437 gave a relative viability of 0.316. For NCI-H1755, the relative viability was 0.419. In the case of NCI-H2023, the relative viability was 0.223. HCC-15 showed a relative viability of 0.223. PC-3 [JPC-3] was tested, and the relative viability was 1.25. EKVX gave a relative viability of 0.467. In the case of LC-2-ad, the relative viability was 0.322. With NCI-H1975 the relative viability was 0.322. SK-LU-1 was tested, and the relative viability was 1.06. Cell Line NCI-H661 has a relative viability of 0.92. In the case of RERF-LC-KJ, the relative viability was 0.487.

Same assay, conditions: first compound 0.8 µM
HCC-78 showed a relative viability of 0.962. For NCI-H322M, the relative viability was 0.63. For LCLC-97TM1, the relative viability was 0.171. Work on NCI-H2009 yielded a relative viability of 1.05. A-427 was tested, and the relative viability was 1.05. For NCI-H460, the relative viability was 0.0591. With NCI-H1734 the relative viability was 0.453. NCI-H520 was tested, and the relative viability was 0.675. Work on NCI-H2347 yielded a relative viability of 0.433. Work on SW 1573 yielded a relative viability of 0.903. 201T was tested, and the relative viability was 0.322. Work on NCI-H1915 yielded a relative viability of 0.497. Work on HCC-827 yielded a relative viability of 0.264. Work on LXF-289 yielded a relative viability of 0.908. In the case of NCI-H23, the relative viability was 0.782. For NCI-H650, the relative viability was 0.953. CAL-12T gave a relative viability of 1.17. With NCI-H1651 the relative viability was 0.573. Cell Line EPLC-272H has a relative viability of 0.316. In the case of NCI-H2228, the relative viability was 0.352. NCI-H1355 was tested, and the relative viability was 1.09. In the case of NCI-H3122, the relative viability was 0.189. NCI-H1437 was tested, and the relative viability was 0.317. With NCI-H1755 the relative viability was 0.426. In the case of NCI-H2023, the relative viability was 0.199. With HCC-15 the relative viability was 0.2. PC-3 [JPC-3] gave a relative viability of 1.25. Work on EKVX yielded a relative viability of 0.395. With LC-2-ad the relative viability was 0.238. NCI-H1975 was tested, and the relative viability was 0.272. With SK-LU-1 the relative viability was 1.1. Work on NCI-H661 yielded a relative viability of 0.86. RERF-LC-KJ gave a relative viability of 0.473.

Same assay, conditions: first compound 2.53 µM
For HCC-78, the relative viability was 0.847. Work on NCI-H322M yielded a relative viability of 0.466. Work on LCLC-97TM1 yielded a relative viability of 0.183. NCI-H2009 gave a relative viability of 0.979. A-427 gave a relative viability of 0.979. NCI-H460 showed a relative viability of 0.0591. In the case of NCI-H1734, the relative viability was 0.45. With NCI-H520 the relative viability was 0.285. For NCI-H2347, the relative viability was 0.395. SW 1573 was tested, and the relative viability was 0.601. Work on 201T yielded a relative viability of 0.309. With NCI-H1915 the relative viability was 0.439. For HCC-827, the relative viability was 0.229. With LXF-289 the relative viability was 0.887. NCI-H23 was tested, and the relative viability was 0.17. For NCI-H650, the relative viability was 0.779. With CAL-12T the relative viability was 0.918. For NCI-H1651, the relative viability was 0.548. EPLC-272H was tested, and the relative viability was 0.231. With NCI-H2228 the relative viability was 0.255. In the case of NCI-H1355, the relative viability was 0.982. Work on NCI-H3122 yielded a relative viability of 0.194. NCI-H1437 was tested, and the relative viability was 0.259. In the case of NCI-H1755, the relative viability was 0.385. NCI-H2023 showed a relative viability of 0.19. HCC-15 gave a relative viability of 0.201. PC-3 [JPC-3] gave a relative viability of 0.882. For EKVX, the relative viability was 0.365. LC-2-ad showed a relative viability of 0.238. NCI-H1975 showed a relative viability of 0.261. For SK-LU-1, the relative viability was 0.528. NCI-H661 was tested, and the relative viability was 0.767. Work on RERF-LC-KJ yielded a relative viability of 0.458.

Same assay, conditions: first compound 8 µM
In the case of HCC-78, the relative viability was 0.878. NCI-H322M showed a relative viability of 0.396. LCLC-97TM1 gave a relative viability of 0.194. NCI-H2009 showed a relative viability of 0.946. Cell Line A-427 has a relative viability of 0.787. NCI-H460 was tested, and the relative viability was 0.0556. Cell Line NCI-H1734 has a relative viability of 0.322. For NCI-H520, the relative viability was 0.153. For NCI-H2347, the relative viability was 0.387. With SW 1573 the relative viability was 0.324. With 201T the relative viability was 0.294. NCI-H1915 showed a relative viability of 0.36. HCC-827 was tested, and the relative viability was 0.193. In the case of LXF-289, the relative viability was 0.725. NCI-H23 gave a relative viability of 0.248. NCI-H650 was tested, and the relative viability was 0.591. CAL-12T was tested, and the relative viability was 1. Work on NCI-H1651 yielded a relative viability of 0.508. EPLC-272H showed a relative viability of 0.151. For NCI-H2228, the relative viability was 0.0888. Cell Line NCI-H1355 has a relative viability of 0.911. Work on NCI-H3122 yielded a relative viability of 0.17. For NCI-H1437, the relative viability was 0.203. With NCI-H1755 the relative viability was 0.33. For NCI-H2023, the relative viability was 0.124. HCC-15 was tested, and the relative viability was 0.144. For PC-3 [JPC-3], the relative viability was 0.455. Cell Line EKVX has a relative viability of 0.387. With LC-2-ad the relative viability was 0.216. With NCI-H1975 the relative viability was 0.175. SK-LU-1 was tested, and the relative viability was 0.187. NCI-H661 was tested, and the relative viability was 0.685. For RERF-LC-KJ, the relative viability was 0.381.
